Structures can show the parent of a compound that is named as a salt.
Columns and labels:
[1] = biological target: T1, Human urokinase (Homo sapiens, UniProt P00749); test: Kinetics of human urokinase inhibition with Spectrozyme UK substrate; format: biochemical; conditions: for binding to uPA compared to unsubstituted counterparts: qualitative comparison of dissociation constants (Table 1); for fold improvement of Ki over 4d: compared to unsubstituted compound 4d; for Ki: human uPA, 0.1M Tris pH 8.8, 25° C., initial rate data
T1 construct: purchased Sigma/Aldrich
Protocol: Human urokinase (Sigma/Aldrich, St. Louis, Mo.) and Spectrozyme UK (American Diagnostica, Stamford, Conn.) were used for the kinetic studies. Enzyme activity was routinely measured in 1 ml volumes of 0.1M Tris, pH 8.8, Spectrozyme UK (10 μM to 150 μM) and 0.64 μg (3,770 units/mg protein) human urokinase. Reactions were monitored at 405 nm, 25° C., with a Perkin/Elmer Lambda S2 UV/vis spectrophotometer. Michaelis constants and Ki values were determined from initial rate data, measured at 8 to 10 substrate concentrations, by non-linear regression analysis with SigmaPlot's Enzyme Kinetics Module™ (Chicago, Ill., USA).

Row | Compound | binding to uPA compared to unsubstituted counterparts [1] | melting point [°C] | also measured
1 | O=c1oc(OCCBr)c(Cl)c2ccc([N+](=O)[O-])cc12 [Compound 4a, 3-(2-Bromoethoxy)-4-chloro-7-nitroisocoumarin] | improved binding | 126 to 128 | –
2 | O=c1oc(OCCCBr)c(Cl)c2ccc([N+](=O)[O-])cc12 [Compound 4b, 3-(3-Bromopropoxy)-4-chloro-7-nitroisocoumarin] | improved binding | 131 to 134 | fold improvement of Ki over 4d [1]: 8 fold; Ki [1]: 1200 nM
3 | O=c1oc(OCCBr)c(Cl)c2ccccc12 [Compound 4c, 3-(2-Bromoethoxy)-4-chloroisocoumarin] | – | 81 to 82 | –
4 | O=c1oc(OCCCBr)c(Cl)c2ccccc12 [Compound 4d, 3-(3-Bromopropoxy)-4-chloroisocoumarin] | – | 95 to 97 | type of inhibition of uPA [1]: simple competitive inhibition with no evidence of rapid inactivation; Ki [1]: 9000 nM
5 | O=c1oc(OCCCCBr)c(Cl)c2ccccc12 [Compound 4e, 3-(4-Bromobutoxy)4-chloroisocoumarin] | – | 75 to 77 | –
6 | Br.N=C(S)NCCOc1oc(=O)c2ccccc2c1Cl [Compound 5c, 4-Chloro-3-(2-isothioureidoethoxy)isocoumarin hydrobromide] | – | 168 to 170 | –
7 | N=C(N)SCCOc1oc(=O)c2ccccc2c1Cl [Compound 5c, 4-Chloro-3-(2-isothioureidoethoxy)isocoumarin hydrobromide] | – | – | Ki [1]: 27 nM
8 | Br.NC(S)=NCCCOc1oc(=O)c2ccccc2c1Cl [Compound 5d, 4-Chloro-3-(3-isothioureidopropoxy)isocoumarin hydrobromide] | – | 159 to 163 | –
9 | Br.N=C(S)NCCCCOc1oc(=O)c2ccccc2c1Cl [Compound 5e, 4-Chloro-3-(4-isothioureidobutoxy)isocoumarin hydrobromide] | – | 159 to 161 | –
10 | Br.NC(S)=NCCCOc1oc(=O)c2cc(NC(=O)c3ccccc3)ccc2c1Cl [Compound 9b, 7-Benzamido-4-chloro-3-(3-isothioureidopropoxy)isocoumarin hydrobromide] | did not exhibit any significant improvement in binding | 203 to 204 | –
11 | Nc1ccc2cc(OCCBr)oc(=O)c2c1 [Compound 11, 7-Amino-3-(2-bromoethoxy)isocoumarin] | – | > 280 | –

Continued, in another order:

Row | binding to uPA compared to unsubstituted counterparts [1] | melting point [°C] | Compound | also measured
12 | – | 134 to 136 | Nc1ccc2c(Cl)c(OCCBr)oc(=O)c2c1 [Compound 6a, 7-Amino-3-(2-bromoethoxy)4-chloroisocoumarin] | –
13 | – | 106 to 107 | Nc1ccc2c(Cl)c(OCCCBr)oc(=O)c2c1 [Compound 6b, 7-Amino-3-(3-bromopropoxy)-4-chloroisocoumarin] | –
14 | – | 173 | Br.NC(S)=NCCCOc1cc2ccc(N)cc2c(=O)o1 [Compound 7b, 7-Amino-3-(3-isothioureidopropoxy)isocoumarin hydrobromide] | –
15 | markedly improved binding | 214 to 216 | O=C(Nc1ccc2c(Cl)c(OCCBr)oc(=O)c2c1)c1ccccc1 [Compound 8a, 7-Benzamido-3-(2-bromoethoxy)-4-chloroisocoumarin] | –
16 | markedly improved binding | 193 to 194 | O=C(Nc1ccc2c(Cl)c(OCCCBr)oc(=O)c2c1)c1ccccc1 [Compound 8b, 7-Benzamido-3-(3-bromopropoxy)-4-chloroisocoumarin] | fold improvement of Ki over 4d [1]: 300 fold; Ki [1]: 34 nM; dissociation constant ([1]; in words): low nanomolar range
17 | – | 173 to 175 | Br.N=C(S)NCCOc1oc(=O)c2cc(NC(=O)c3ccccc3)ccc2c1Cl [Compound 9a, 7-Benzamido-4-chloro-3-(2-isothioureidoethoxy)isocoumarin hydrobromide] | –
18 | – | 95 to 97 | O=c1oc(OCCBr)cc2ccc([N+](=O)[O-])cc12 [Compound 10a, 3-(2-Bromoethoxy)-7-nitroisocoumarin] | –
19 | – | 112 to 113 | O=c1oc(OCCCBr)cc2ccc([N+](=O)[O-])cc12 [Compound 10b, 3-(3-Bromopropoxy)-7-nitroisocoumarin] | –
20 | did not show improved binding | – | O=C(c1c(OCCCBr)oc(=O)c2ccccc12)C(F)(F)F [Compound 10c, 3-(3-Bromopropoxy)-4-trifluoroacetylisocoumarin] | –

— patent US20060252823A1, “Isocoumarin-based inhibitors of urokinase-type plasminogen activator” (priority 2005, published 2006)
